Experimental data taken from PubChem BioAssay (NCI).
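Grown in 96-well plates, cells were treated for 48 hours with each compound at five concentrations. Insufficient inhibition: endpoint recorded as highest concentration tested. TGI denotes the concentration required for complete inhibition of growth.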

How the values were obtained:
Test in all cases: inhibition of tumour cell growth, NCI panel, 48 h
786-0 renal = system: 786-0 renal
UO-31 renal = system: UO-31 renal
HT29 colon = system: HT29 colon
SF-268 CNS = system: SF-268 CNS
OVCAR-5 ovarian = system: OVCAR-5 ovarian
MOLT-4 leukemia = system: MOLT-4 leukemia
HOP-62 NSCLC = system: HOP-62 NSCLC
MDA-MB-435 = system: MDA-MB-435
HOP-92 NSCLC = system: HOP-92 NSCLC
COLO 205 colon = system: COLO 205 colon
MDA-N = system: MDA-N

Structure (SMILES) | TGI (786-0 renal) [µM] | TGI (UO-31 renal) [µM] | TGI (HT29 colon) [µM] | TGI (SF-268 CNS) [µM] | TGI (OVCAR-5 ovarian) [µM] | TGI (MOLT-4 leukemia) [µM] | TGI (HOP-62 NSCLC) [µM] | TGI (MDA-MB-435) [µM] | TGI (HOP-92 NSCLC) [µM] | TGI (COLO 205 colon) [µM] | TGI (MDA-N) [µM]
CC(=O)c1c(N=[N+]=[N-])c2cccc3c2n(c1=O)CCC3 | 33.5 | 55.6 | 35.5 | 38.6 | 34.5 | 62.6 | 42.3 | 42.7 | 67.7 | 44.6 | 44.5
CCCCC1Cc2cc(O)ccc2-c2nc3cc(O)ccc3n21 (centres undefined) (tested in a mixture with another compound) | 52.9 | 28.5 | 31.9 | 33.3 | 34.8 | 46.9 | 30.2 | 26.1 | 30.5 | 29.7 | 36.3
O=c1[nH]c2nc3ccccc3c(=O)n2/c1=C/c1cccs1 | > 100 | > 100 | > 100 | > 100 | > 100 | > 100 | > 100 | > 100 | > 100 | > 100 | > 100
Cc1ccnc2c1C(=O)C1=C(OC(C)(C)CC1O)C2=O (centres undefined) | 16.4 | 11.3 | 10.8 | 17.5 | 20.6 | 26.9 | 13.6 | 2.73 | 24.6 | 6.52 | 2.9
c1ccc2c3[nH]c(c2c1)=Nc1ccc(cc1)-c1nc2ccc(cc2o1)N=c1[nH]c(c2ccccc12)=Nc1ccc2nc(oc2c1)-c1ccc(cc1)N=3 | > 100 | 45.5 | > 100 | > 100 | > 100 | > 100 | > 100 | > 100 | > 100 | 67.8 | > 100
O=c1[nH]nc(Cc2ccc(Cl)cc2)n1/N=C/c1cccs1 | > 100 | > 100 | 40.2 | 42.9 | > 100 | > 100 | 55.2 | > 100 | 64.2 | > 100 | > 100
COC(=O)[C@@H](NC(=O)N(Cc1ccccc1)C[C@H](CC(C)C)NC(=O)[C@@H](NC(=O)OC(C)(C)C)C(C)C)C(C)C | > 100 | > 100 | > 100 | > 100 | > 100 | > 100 | > 100 | > 100 | > 100 | > 100 | > 100
C=CC1(CC[C@]2(c3ccc(OC)c(OC)c3)C=[N+]([O-])O[C@H](O[C@@H]3CCCC[C@H]3C(C)(C)c3ccccc3)C2)OCC(C)(C)CO1 | > 45.8 | > 48.7 | 28.2 | 52.1 | 39 | 21.6 | 36.5 | > 51.1 | > 46.6 | > 53.3 | 24.7
Oc1c(Br)ccc2cccnc12 | > 43.2 | 22.8 | > 35.8 | > 100 | > 100 | > 26.9 | > 100 | > 100 | 69.7 | > 33.8 | > 100
